We go through 9 molecules from patent US7700375B2, “Fluorescent labeling of specific protein targets in vitro and in vivo” (Valorisation-Recherche, LP, priority 2004, dated 2010).

Data set [1] in a line: Fluorescence spectral properties of fluorogens and their ethanethiol adducts. It is filed as physicochemical. The note with it: for φ (quantum yield): rapid approximation method of reference 34. On the procedure:
For the application of this fluorogenic reaction to the detection of thiols and dithiols, two important criteria are the fluorescence intensity of the thiol addition product and the ratio of its fluorescence compared to its parent fluorogen. We studied the effect of electron withdrawing and donating substituants on these criteria by preparing the derivatives of fluorogen 4 shown in Scheme 1. Fluorogen 5, bearing an electron withdrawing ester group, was prepared according to a protocol similar to that used for fluorogen 4, but using an ester-substituted maleic anhydride derived by oxidation of dimethyl L-tartrate according to a published procedure.^31 Fluorogen 6 bears an electron donating methyl group and was obtained in similar yield by adaptation of the standard literature protocol,^25 using citraconic anhydride. The reaction of 5 and 6 with ethanethiol in DMSO led to the formation of thiol adducts 8 and 9, whose fluorescence was characterized as shown in Table 1. Even from this small series, certain tendencies are apparent. Increasing the electron donating capacity of the substituent appears to have a significant effect on the absorbance maximum corresponding to the wavelength of excitation, increasing by 37 nm from 8 to 9. Although the emission wavelength increases very slightly over the same series, the net effect on the Stokes shift is a significant decrease with increasing electron donating capacity of the substituent.
(§1) Comparison of the fluorescent properties^34 of the four different parent fluorogens (and their corresponding thiol adducts) studied herein (see Table 2) substantiates our retention of compounds 13 and 20 as candidates for further tests with proteins.
The following material were obtained from Aldrich and were used without further purification: 2-hydroxy-5-nitrobenzaldehyde, N-acetylglycine, maleic anhydride, p-nitrophenylacetic acid, L-aspartic acid dimethyl ester hydrochloride, citraconic anhydride, dimethyl L-tartrate, dimethyl malonate. All reactions were carried out under an atmosphere of dry nitrogen employing conventional bench-top techniques except for reactions with thiols. ^13C-NMR and ^1H-NMR spectra were recorded on AMXR400 or AMX300 spectrometers and were referenced to the residual proton or ^13C signal of the solvent. Mass spectra were determined by FAB+ ionization on an AutoSpecQ spectrometer at the Regional Mass Spectrometry Centre at the Université de Montréal. Infrared spectra were recorded on a Perkin-Elmer (FTIR) spectrometer. Melting points (uncorrected) were determined on a Unimelt Tomas-Hoover or on a Gallenkamp meting point apparatus. Fluorescence spectra were recorded using a Varian Cary Eclipse fluorimeter and gel electrophoresis was carried out on a SpectraPhoresis 100 apparatus.

Data set [2] in a line: Thiol addition reaction of fluorogens with ethanethiol (fluorescence increase). The text has this:
The fluorescence spectra obtained upon excitation at 350 nm before and after the reaction of ethanethiol with compound 4 are shown in FIG. 1.
Based on this observation, we reasoned that compounds 4 and 13 should also react efficiently with one equivalent of a dithiol bearing two sulfhydryl groups separated by an appropriate distance. […] That is, after fluorogen 4 undergoes an initial addition reaction with BMMB, the second addition reaction with the pendant sulfhydryl group of BMMB is intramolecular and presumably much faster (Scheme 5).
[formula] […] In the case of dithiol addition, this second addition reaction with a sulfhydryl group would be intramolecular, and presumably even faster.

Data set [3] deals with diCys-Fos (Homo sapiens, UniProt P01100, C204S/L161C). Put plainly: Protein labeling in vitro, SDS-PAGE with UV illumination. It is filed as biochemical. The arrangement: the C99S mutant of a fragment of Fos. The note with it: 0.242 mM protein, 0.5 mM of 20 or 0.05 mM of 13, 25° C. overnight. On the procedure:
(§2) As mentioned in the introduction, an α-helical protein was designed to bear two cysteine residues, separated by a distance complementary to that between the maleimide groups of the designated fluorogen. The protein chosen as a starting point for this design was the C99S mutant of a fragment of Fos,^21 a known α-helical protein^22 whose recombinant expression has been published.^23 Site-directed mutagenesis was then performed^20,35 to introduce a cysteine residue (L56C), separated by two turns of the α-helical motif from the native Cys49, positioning the protein's only two thiol groups approximately 10 Å apart.^36 Although at higher concentrations, Fos is known to form a homodimer,^22 the distance between the intermolecular cysteine residues in this putative homodimer would render their reaction with a single fluorogen molecule impossible. […]
(§3) Purified mCys-Fos and diCys-Fos were then tested in vitro for their ability to react with fluorogens 13 and 20. After incubation of 0.242 mM protein with 0.5 mM of 20 or 0.05 mM of 13 at 25° C. overnight, glycerol was added and the reaction mixtures were analyzed by SDS-PAGE using UV illumination and then Coomassie blue staining. […]

A short description of data set [4]: Product study of reaction with 3-mercaptopropionic acid by capillary electrophoresis. The note with it: up to 2 equivalents of 3-mercaptopropionic acid; CE. The text has this: Product studies carried out for the reaction of 4 with simple thiols support the hypothesis that the second addition reaction is faster than the first. Initial experiments involved the addition of ethanethiol to 4 and attempts to separate and characterize the dithiolated and monothiolated adducts. However, no significant peak corresponding to the putative monothiolated adduct could be isolated by flash chromatography, so an experiment was designed to facilitate the separation of the monothiolated and dithiolated adducts by capillary electrophoresis (CE, see Experimental Section). By using 3-mercaptopropionic acid as a simple thiol, we ensured that at basic pH, any monothiolated adduct would singly negatively charged, due to ionization of the carboxylate group, whereas the dithiolated product would be doubly negatively charged.
After reaction of 1 mM 1 with 0.25-3 mM 3-mercaptopropionic acid in DMSO-H2O 1.9 overnight, the fluorescence of the reaction mixture was measured. To this mixture was then added 3 equivalents of ethanethiol, converting all unreacted and monothiolated adducts to dithiolated adducts. […] Their relative concentrations were calculated by the areas under their peaks, recorded UV detection at 370 nm. […]

Data set [5] is described as follows: Temperature dependence of first-order rate constants of ethanethiol addition. The note with it: 0.1 mM fluorogen, 2.0 mM ethanethiol in DMF, 10-40° C. On the procedure:
First-order rate constants for the reaction of 0.1 mM 13 with 2.0 mM ethanethiol in DMF were also measured as a function of temperature from 10-40° C. Over this temperature range, the observed rate constants increased slightly with temperature, but varied by less than a factor of 2, and evaporation of ethanethiol was problematic at 40° C. For these reasons, precise quantitative analysis of the effect of temperature (for example, in the form of an Eyring plot) was not possible.

For data set [6], the target named is T1, mCys-Fos (Homo sapiens, UniProt P01100, C204S).
T1 construct: the C99S mutant of a fragment of Fos; His-tag (N); made in house; host or cells: XL1-blue E. coli
T1 sequence (P01100 118-211 C204S limits assumed): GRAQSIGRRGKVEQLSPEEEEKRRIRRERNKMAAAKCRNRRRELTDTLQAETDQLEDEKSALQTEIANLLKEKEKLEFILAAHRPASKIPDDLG
Put plainly: Protein labeling in vitro, SDS-PAGE with UV illumination. It is filed as biochemical. The settings on record: 0.242 mM protein, 0.5 mM of 20 or 0.05 mM of 13, 25° C. overnight. On the procedure:
as §2, §3

A short description of data set [7]: Solubility. Type of data set: physicochemical. On the procedure:
as §1
Finally, we wished to determine if fluorogens such as 13 and 20 were cytotoxic. […] Furthermore, even at 300 μM 20, the limit of its solubility in cell culture, 70% of COS cells were still viable (FIG. 8). […] The convenience of the application of this fluorescent labeling method is obvious from the low cytoxocity of 20, even at concentrations 30 times greater than those necessary for efficient labeling.

Setting [8] is: in DMSO, ratio of areas under fluorescence emission bands of fluorogen and its thiol adduct.

diCys-Fos, sequence (P01100 118-211 L161C/C204S limits assumed): as the sequence (P01100 118-211 C204S limits assumed) above, with L44C counted along it

As usually defined, the melting point is the temperature, or range, at which the solid turns liquid. On to `O=C1C=CC(=O)N1c1ccc2oc(=O)c(N3C(=O)C=CC3=O)cc2c1` [Compound 4, 3,6-Dimaleimidylchromen-2-one], for which the melting point is > 296 °C (dec.).

With `COC(=O)C1=CC(=O)N(c2ccc3oc(=O)c(N4C(=O)C=C(C(=O)OC)C4=O)cc3c2)C1=O` [Compound 5, 3,6-Di-(3′-methoxycarbonylmaleimidyl)chromen-2-one], in data set [1] (in DMSO), the Stokes shift turned out to be 115 nm; the “λem (emission band)” value was 360-600 nm; the “λem, wavelength corresponding to center of Full Width at Half Maximum of emission band” value (from here on “λem, wavelength corresponding to center”) is 447 nm; the λexc was 332 nm. For the same molecule, in data set [1] (setting [8]), the “IF Ratio” value came out at 2.7.

As to `CC1=CC(=O)N(c2ccc3oc(=O)c(N4C(=O)C=C(C)C4=O)cc3c2)C1=O` [Compound 6, 3,6-Di-(3′-methylmaleimidyl)chromen-2-one], in data set [1] (in DMSO), the Stokes shift stood at 82 nm; the “λem (emission band)” value was 370-600 nm; the “λem, wavelength corresponding to center” value was determined as 455 nm; the λexc is on record as 373 nm. Further, the “IF Ratio” value in data set [1] (setting [8]) is 3.6.

As to `CCSC1C(=O)N(c2ccc3oc(=O)c(N4C(=O)C(SCC)C(C(=O)OC)C4=O)cc3c2)C(=O)C1C(=O)OC` (centres unmarked) [Compound 8, 3,6-Di-(3′-ethylthio-4′-methoxycarbonylsuccinimidyl)chromen-2-one], in data set [1] (in DMSO), the Stokes shift turned out to be 121 nm and the λexc is 336 nm.

In the case of `CCSC1C(=O)N(c2ccc3oc(=O)c(N4C(=O)C(C)C(SCC)C4=O)cc3c2)C(=O)C1C` (centres unmarked) [Compound 9, 3,6-Di-(3′-ethylthio-4′-methylsuccinimidyl)chromen-2-one], in data set [1] (in DMSO), the Stokes shift was found to be 82 nm and the λexc worked out at 373 nm.

For the molecule `O=C1C=CC(=O)N1c1ccc(-c2cc3cc(N4C(=O)C=CC4=O)ccc3oc2=O)cc1` [Compound 13, 6-Maleimidyl-3-p-maleimidylphenylchromen-2-one], the “change in fluorescence on addition of ethanethiol” value in data set [2] (3 mM ethanethiol, 1 mM fluorogen, 9:1 H2O:DMSO, over 3 hours) is “marked increase in fluorescence”. For the same molecule, in data set [2] (ethanethiol), the “equivalents of thiol at which fluorescence plateau was reached” value is reported as approximately 2.2 equivalents. The “fluorescent labeling of diCys-Fos” value in data set [3] was “efficiently fluorescently labeled”. Besides, the “formation of monothiolated adduct” value in data set [4] is listed as “no monothiolated product was detectable”. In data set [1] (10:90 DMSO: water), the Stokes shift turned out to be 76 nm; the “λem (emission band)” value is 400-550 nm; the “λem, wavelength corresponding to center” value was 460 nm; the λexc is 384 nm. Besides, the “φ (quantum yield)” value in data set [1] (10:90 DMSO: water) is 0.006. For the same molecule, the “IF Ratio” value in data set [1] (10:90 DMSO: water, ratio of areas under emission bands of fluorogen and thiol adduct) is 5.2. Also, the “variation of observed first-order rate constants with temperature (factor)” value in data set [5] is listed as less than 2. The “fluorescent labeling of mCys-Fos” value in data set [6] is “is not”.

On to `CCSC1CC(=O)N(c2ccc(-c3cc4cc(N5C(=O)CC(SCC)C5=O)ccc4oc3=O)cc2)C1=O` (centres unmarked) [Compound 14, 6-(3′-Ethylthiosuccinimidyl)-3-p-(3′-ethylthiosuccinimidyl)phenylchromen-2-one], for which, in data set [1] (10:90 DMSO: water), the Stokes shift is on record as 76 nm, the λexc is on record as 384 nm and the “φ (quantum yield)” value amounted to 0.223.

As to `O=C1C=CC(=O)N1c1cccc2c(N3C(=O)C=CC3=O)cccc12` [Compound 15, 1,5-Dimaleimidylnaphthalene], the “solubility in water / aqueous DMSO” value in data set [7] was “insoluble in water, even upon the addition of up to 10% DMSO”. Further, in data set [1] (neat DMSO), the Stokes shift came to 63 nm; the “λem (emission band)” value is on record as 340-500 nm; the “λem, wavelength corresponding to center” value stood at 391 nm; the λexc is 328 nm. The “φ (quantum yield)” value in data set [1] (neat DMSO) is listed as 1.70 × 10^−3. The “IF Ratio” value in data set [1] (neat DMSO, ratio of areas under emission bands of fluorogen and thiol adduct) turned out to be 31.

With `CCSC1CC(=O)N(c2cc3c4c(cc(N5C(=O)CC(SCC)C5=O)cc4c2)C(=O)N([C@@H](CC(=O)OC)C(=O)OC)C3=O)C1=O` (stereo partly drawn) [Compound 21, N-(3,6-Di(3′-ethylthiosuccinimidyl)-1,8-naphthalyl)-L-aspartic acid dimethyl ester], in data set [1] (10:90 DMSO: water), the Stokes shift is 67 nm and the λexc is listed as 511 nm. For the same molecule, in data set [1] (adduct vs parent fluorogen (16 in DMSO)), the “fluorescence of ethanethiol adduct relative to parent fluorogen (factor)” value amounted to 8.5. The “detectability of adduct fluorescence” value in data set [1] (ethanethiol adduct) was “easily detected at micromolar concentrations”.
